Experiments:
rape = test: Test B pre/postemergence rape; type: in vivo, Brassica napus
Procedure, shortened: (§1)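 Test chemicals in a non-phytotoxic solvent mixture with surfactant were sprayed preemergence onto planted seeds and postemergence onto plants 2 to 18 cm tall (1- to 4-leaf stage). After twelve to sixteen days in a greenhouse, injury was visually rated against untreated controls from 0 (no effect) to 10 (complete control).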

wild oat = test: Test B pre/postemergence wild oat; type: in vivo, Avena fatua
Procedure, shortened: as §1

sugar beet = test: Test B pre/postemergence sugar beet; type: in vivo, Beta vulgaris
Procedure, shortened: as §1

bedstraw = test: Test B pre/postemergence bedstraw; type: in vivo, Galium aparine
Procedure, shortened: as §1

wheat = test: Test B pre/postemergence wheat; type: in vivo, Triticum aestivum
Procedure, shortened: as §1

crabgrass = test: Test B pre/postemergence crabgrass; type: in vivo, Digitaria sanguinalis
Procedure, shortened: as §1

corn = test: Test B pre/postemergence corn; type: in vivo, Zea mays
Procedure, shortened: as §1

purple nutsedge = test: Test B pre/postemergence purple nutsedge; type: in vivo, Cyperus rotundus
Procedure, shortened: as §1

cocklebur = test: Test B pre/postemergence cocklebur; type: in vivo, Xanthium strumarium
Procedure, shortened: as §1

blackgrass = test: Test B pre/postemergence blackgrass; type: in vivo, Alopecurus myosuroides
Procedure, shortened: as §1

rice = test: Test B flood test rice; type: in vivo, Oryza sativa
Procedure, shortened: (§2)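 Each value is a visual injury score relative to controls, with 10 meaning complete control and 0 no effect. Evaluation took place twelve to sixteen days after the 2-leaf-stage plants were treated and kept in the greenhouse.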

velvetleaf = test: Test B pre/postemergence velvetleaf; type: in vivo, Abutilon theophrasti
Procedure, shortened: as §1

bamyardgrass = test: Test B flood test barnyardgrass; type: in vivo, Echinochloa crus-galli
Procedure, shortened: as §2

surinam grass = test: Test B pre/postemergence surinam grass; type: in vivo, Brachiaria decumbens
Procedure, shortened: as §1

soybean = test: Test B pre/postemergence soybean; type: in vivo, Glycine max
Procedure, shortened: as §1

smallflower flatsedge = test: Test B flood test smallflower flatsedge; type: in vivo, Cyperus difformis
Procedure, shortened: as §2

duck salad = test: Test B flood test duck salad; type: in vivo, Heteranthera limosa
Procedure, shortened: as §2

[1] = Postemergence, Rate 250 g/ha, scale 0 to 10, 0 no effect, 10 complete control
[2] = Postemergence, Rate 1000 g/ha, scale 0 to 10 (0 no effect, 10 complete control)
[3] = Preemergence, Rate 125 g/ha, scale 0 to 10 (0 no effect, 10 complete control)
[4] = Preemergence, Rate 250 g/ha, scale of 0 to 10 where 0 is no effect and 10 is complete control
[5] = Preemergence, Rate 500 g/ha, scale 0 (no effect) to 10 (complete control)
[6] = Rate 125 g/ha, Postemergence, scale 0 to 10, 0 no effect, 10 complete control
[7] = Rate 500 g/ha, Postemergence, 0 to 10 scale (0 no effect, 10 complete control)
[8] = Rate 1000 g/ha, Preemergence, scale 0 to 10 (0 no effect, 10 complete control)
[9] = Rate 125 g/ha, Postemergence section (flood test species), scale 0 to 10, 0 no effect, 10 complete control
[10] = Rate 500 g/ha, Postemergence section of Table B, 0 to 10 scale (0 no effect, 10 complete control)
[11] = flood test, listed under Postemergence, Rate 250 g/ha, scale 0 to 10, 0 no effect, 10 complete control

CC(C)N(C(=O)n1oc(=O)n(-c2ccc(OC(F)(F)F)cc2)c1=O)C1=CCOCC1 [Compound 13]
7: Plant response rating, Wild oats (wild oat; [8])
0: Rape plant response rating (rape; [1]) | Plant response rating, Rape (rape; [3]) | Plant response rating, Rape (rape; [4]) | Rape plant response rating (rape; [5]) | Rape plant response rating (rape; [6]) | Plant response rating, Rape (rape; [8]) | Wild oats plant response rating (wild oat; [1]) | Plant response rating, Wild oats (wild oat; [3]) | Plant response rating, Wild oats (wild oat; [4]) | Wild oats plant response rating (wild oat; [6]) | Sugarbeets plant response rating (sugar beet; [1]) | Sugarbeets plant response rating (sugar beet; [2]) | Plant response rating, Sugarbeets (sugar beet; [3]) | Plant response rating, Sugarbeets (sugar beet; [4]) | Sugarbeets plant response rating (sugar beet; [5]) | Sugarbeets plant response rating (sugar beet; [6]) | Plant response rating, Sugarbeets (sugar beet; [8]) | Bedstraw plant response rating (bedstraw; [1]) | Bedstraw plant response rating (bedstraw; [2]) | Plant response rating, Bedstraw (bedstraw; [3]) | Plant response rating, Bedstraw (bedstraw; [4]) | Bedstraw plant response rating (bedstraw; [5]) | Bedstraw plant response rating (bedstraw; [6]) | Bedstraw plant response rating (bedstraw; [7]) | Wheat plant response rating (wheat; [1]) | Wheat plant response rating (wheat; [2]) | Plant response rating, Wheat (wheat; [3]) | Plant response rating, Wheat (wheat; [4]) | Wheat plant response rating (wheat; [5]) | Wheat plant response rating (wheat; [6]) | Plant response rating, Wheat (wheat; [8]) | Corn plant response rating (corn; [1]) | Corn plant response rating (corn; [2]) | Plant response rating, Corn (corn; [3]) | Plant response rating, Corn (corn; [4]) | Corn plant response rating (corn; [5]) | Corn plant response rating (corn; [6]) | Corn plant response rating (corn; [7]) | Plant response rating, Corn (corn; [8]) | Nutsedge plant response rating (purple nutsedge; [1]) | Nutsedge plant response rating (purple nutsedge; [2]) | Plant response rating, Nutsedge (purple nutsedge; [3]) | Plant response rating, Nutsedge (purple nutsedge; [4]) | Nutsedge plant response rating (purple nutsedge; [5]) | Nutsedge plant response rating (purple nutsedge; [6]) | Nutsedge plant response rating (purple nutsedge; [7]) | Plant response rating, Nutsedge (purple nutsedge; [8]) | Cocklebur plant response rating (cocklebur; [1]) | Cocklebur plant response rating (cocklebur; [2]) | Plant response rating, Cocklebur (cocklebur; [3]) | Plant response rating, Cocklebur (cocklebur; [4]) | Cocklebur plant response rating (cocklebur; [5]) | Cocklebur plant response rating (cocklebur; [6]) | Cocklebur plant response rating (cocklebur; [7]) | Plant response rating, Blackgrass (blackgrass; [3]) | Plant response rating, Blackgrass (blackgrass; [4]) | Blackgrass plant response rating (blackgrass; [6]) | Rice plant response rating (rice; [2]) | Rice plant response rating (rice; [9]) | Rice plant response rating (rice; [10]) | Rice plant response rating (rice; [11]) | Velvetleaf plant response rating (velvetleaf; [1]) | Velvetleaf plant response rating (velvetleaf; [2]) | Plant response rating, Velvetleaf (velvetleaf; [3]) | Plant response rating, Velvetleaf (velvetleaf; [4]) | Velvetleaf plant response rating (velvetleaf; [5]) | Velvetleaf plant response rating (velvetleaf; [6]) | Barnyardgrass plant response rating (bamyardgrass; [2]) | Barnyardgrass plant response rating (bamyardgrass; [9]) | Barnyardgrass plant response rating (bamyardgrass; [10]) | Barnyardgrass plant response rating (bamyardgrass; [11]) | Plant response rating, B. signalgrass (surinam grass; [3]) | B. signalgrass plant response rating (surinam grass; [6]) | Plant response rating, Soybean (soybean; [3]) | Plant response rating, Soybean (soybean; [4]) | Soybean plant response rating (soybean; [5]) | Plant response rating, Soybean (soybean; [8]) | S. Flatsedge plant response rating (smallflower flatsedge; [2]) | S. Flatsedge plant response rating (smallflower flatsedge; [9]) | S. Flatsedge plant response rating (smallflower flatsedge; [11]) | Ducksalad plant response rating (duck salad; [2]) | Ducksalad plant response rating (duck salad; [9]) | Ducksalad plant response rating (duck salad; [10]) | Ducksalad plant response rating (duck salad; [11])
8: Plant response rating, Crabgrass (crabgrass; [8]) | Blackgrass plant response rating (blackgrass; [2]) | Plant response rating, B. signalgrass (surinam grass; [8])
3: Plant response rating, Bedstraw (bedstraw; [8]) | Blackgrass plant response rating (blackgrass; [1]) | Soybean plant response rating (soybean; [2])
6: Blackgrass plant response rating (blackgrass; [5]) | B. signalgrass plant response rating (surinam grass; [2])
9: Crabgrass plant response rating (crabgrass; [2]) | Crabgrass plant response rating (crabgrass; [7]) | Plant response rating, Blackgrass (blackgrass; [8])
4: Blackgrass plant response rating (blackgrass; [7]) | B. signalgrass plant response rating (surinam grass; [5])
2: Wild oats plant response rating (wild oat; [2]) | Wild oats plant response rating (wild oat; [5]) | Plant response rating, Crabgrass (crabgrass; [3]) | Plant response rating, Velvetleaf (velvetleaf; [8]) | B. signalgrass plant response rating (surinam grass; [1]) | Plant response rating, B. signalgrass (surinam grass; [4]) | Soybean plant response rating (soybean; [1])
5: Crabgrass plant response rating (crabgrass; [1]) | Plant response rating, Crabgrass (crabgrass; [4]) | Crabgrass plant response rating (crabgrass; [5]) | B. signalgrass plant response rating (surinam grass; [7])
1: Rape plant response rating (rape; [2]) | Rape plant response rating (rape; [7]) | Crabgrass plant response rating (crabgrass; [6]) | Soybean plant response rating (soybean; [6])

Source: patent publication US6737383B1, “Herbicidal oxadiazolidines” (priority 1999, dated 2004)
